The source of these data is ChEMBL document CHEMBL3585290, “Synthesis and biological evaluation of novel bivalent -carbolines as potential antitumor agents” (Medchemcomm, 2014).

Structures are written as SMILES.

What all share (assay type): functional, cell-based
Assay [1] has as its system 769-P. Nature of the assay: Cytotoxicity against human 769-P cells after 48 hrs by MTT assay.
A short description of assay [2]: Cytotoxicity against human BGC823 cells after 48 hrs by MTT assay. As to conditions: BGC-823, 48 h. A general note: Tetrazolium assays rely on reduction of a dye to a coloured formazan, in cell work by metabolically active cells.
Assay [3] deals with KB. Nature of the assay: Cytotoxicity against human KB cells after 48 hrs by MTT assay.
Assay [4] has as its system A-375. In words: Cytotoxicity against human A375 cells after 48 hrs by MTT assay. The conditions noted are these: A-375, 48 h.
Assay [5] has as its system SK-OV-3. In words: Cytotoxicity against human SKOV3 cells after 48 hrs by MTT assay. The conditions noted are these: SK-OV-3, 48 h.

In general, IC50 refers to the point on the concentration scale where inhibition reaches its midpoint. `CCCCn1c2ccccc2c2cc(C(=O)OCCCCCCCCOC(=O)c3cc4c5ccccc5n(CCCC)c4cn3)ncc21`: the half-maximal inhibitory concentration (IC50) in assay [1] was found to be 210 µM; in assay [2], 68.9 µM; in assay [3], 19.8 µM; in assay [4], 146 µM; in assay [5], 124 µM.

In the case of `CCCCn1c2ccccc2c2cc(C(=O)OCCCCCCCCCCOC(=O)c3cc4c5ccccc5n(CCCC)c4c(C)n3)nc(C)c21`, the 50% inhibitory concentration (IC50) in assay [1] was 114 µM; in assay [2] it was more than 200 µM; in assay [3], more than 200 µM; in assay [4], 42 µM; in assay [5] it was more than 200 µM.

As for `O=C(OCCCCCCCOC(=O)c1cc2c3ccccc3n(CCCc3ccccc3)c2cn1)c1cc2c3ccccc3n(CCCc3ccccc3)c2cn1`, the IC50 in assay [1] is 43.5 µM; in assay [2], more than 200 µM; in assay [3], 78.9 µM; in assay [4], 143 µM; in assay [5] it was more than 200 µM.

Turning to `CCCCn1c2ccccc2c2cc(C(=O)OCCCCCCCCCOC(=O)c3cc4c5ccccc5n(CCCC)c4cn3)ncc21`, the IC50 in assay [1] is 115 µM; in assay [2], more than 200 µM; in assay [3], 26.4 µM; in assay [4] it was 89.6 µM; in assay [5], more than 200 µM.

Take `O=C(OCCCCOC(=O)c1cc2c3ccccc3n(Cc3ccccc3)c2cn1)c1cc2c3ccccc3n(Cc3ccccc3)c2cn1`: the half-maximal inhibitory concentration (IC50) in assay [1] is 45.4 µM; in assay [2], 43.6 µM; in assay [3], more than 200 µM; in assay [4] it was 7.9 µM; in assay [5], more than 200 µM.

Take `Cc1nc(C(=O)OCCCCCCOC(=O)c2cc3c4ccccc4n(C)c3c(C)n2)cc2c3ccccc3n(C)c12`: the IC50 in assay [1] is 28.3 µM; in assay [2], more than 200 µM; in assay [3], 165 µM; in assay [4], 82.6 µM; in assay [5] it was more than 200 µM.

In the case of `O=C(OCCCOC(=O)c1cc2c3ccccc3n(CCCc3ccccc3)c2cn1)c1cc2c3ccccc3n(CCCc3ccccc3)c2cn1`, the IC50 is 95.6 µM in assay [1]; more than 200 µM in assay [2]; 72.4 µM in assay [3]; more than 200 µM in assay [4]; more than 200 µM in assay [5].

For the compound `COc1cc(-c2nc(C(=O)OCCCCCCOC(=O)c3cc4c5ccccc5n(CCCc5ccccc5)c4c(-c4cc(OC)c(OC)c(OC)c4)n3)cc3c4ccccc4n(CCCc4ccccc4)c23)cc(OC)c1OC`, the IC50 in assay [1] is 118 µM; in assay [2], 168 µM; in assay [3] it was more than 200 µM; in assay [4] it was 134 µM; in assay [5] it was more than 200 µM.

As for `CCCCn1c2ccccc2c2cc(C(=O)OCCCCCCCOC(=O)c3cc4c5ccccc5n(CCCC)c4c(C)n3)nc(C)c21`, the IC50 was 95.9 µM in assay [1]; more than 200 µM in assay [2]; more than 200 µM in assay [3]; more than 200 µM in assay [4]; 71.5 µM in assay [5].

`O=C(OCCCCCCOC(=O)c1cc2c3ccccc3n(Cc3ccccc3)c2cn1)c1cc2c3ccccc3n(Cc3ccccc3)c2cn1`: the concentration for half-maximal inhibition (IC50) in assay [1] was 46.8 µM; in assay [2], 164 µM; in assay [3], 15.7 µM; in assay [4], more than 200 µM; in assay [5], 27.8 µM.

On to `Cc1nc(C(=O)OCCCCCCOC(=O)c2cc3c4ccccc4n(Cc4ccccc4)c3c(C)n2)cc2c3ccccc3n(Cc3ccccc3)c12`, for which the 50% inhibitory concentration (IC50) in assay [1] was 64.7 µM; in assay [2], more than 200 µM; in assay [3], 112 µM; in assay [4] it was more than 200 µM; in assay [5], more than 200 µM.

As to `CCn1c2ccccc2c2cc(C(=O)OCCCCCCCCCOC(=O)c3cc4c5ccccc5n(CC)c4c(C)n3)nc(C)c21`, the concentration for half-maximal inhibition (IC50) was 10.3 µM in assay [1]; more than 200 µM in assay [2]; 56.9 µM in assay [3]; more than 200 µM in assay [4]; more than 200 µM in assay [5].

As to `Cc1nc(C(=O)OCCCCCCCCCCOC(=O)c2cc3c4ccccc4n(C)c3c(C)n2)cc2c3ccccc3n(C)c12`, the 50% inhibitory concentration (IC50) in assay [1] was 42.9 µM; in assay [2] it was more than 200 µM; in assay [3] it was 198 µM; in assay [4], 125 µM; in assay [5], more than 200 µM.

Consider `O=C(OCCCCCCOC(=O)c1cc2c3ccccc3n(Cc3cccc(Cl)c3)c2cn1)c1cc2c3ccccc3n(Cc3cccc(Cl)c3)c2cn1`, for which the IC50 in assay [1] is 21.9 µM; in assay [2], more than 200 µM; in assay [3], 46.9 µM; in assay [4], more than 200 µM; in assay [5] it was 19 µM.

With `CCn1c2ccccc2c2cc(C(=O)OCCCCCCCCOC(=O)c3cc4c5ccccc5n(CC)c4c(C)n3)nc(C)c21`, the half-inhibitory concentration (IC50) is 21.7 µM in assay [1]; more than 200 µM in assay [2]; more than 200 µM in assay [3]; 86.3 µM in assay [4]; 86.4 µM in assay [5].

Turning to `CCCCn1c2ccccc2c2cc(C(=O)OCCCCCOC(=O)c3cc4c5ccccc5n(CCCC)c4cn3)ncc21`, the IC50 in assay [1] was 32.9 µM; in assay [2], more than 200 µM; in assay [3], 53.9 µM; in assay [4], more than 200 µM; in assay [5], more than 200 µM.

On to `Cc1nc(C(=O)OCCCCCCCCCOC(=O)c2cc3c4ccccc4n(CCCc4ccccc4)c3c(C)n2)cc2c3ccccc3n(CCCc3ccccc3)c12`, for which the IC50 in assay [1] is 108 µM; in assay [2], more than 200 µM; in assay [3], 50.7 µM; in assay [4], more than 200 µM; in assay [5], more than 200 µM.

In the case of `Cc1nc(C(=O)OCCCCCOC(=O)c2cc3c4ccccc4n(Cc4ccccc4)c3c(C)n2)cc2c3ccccc3n(Cc3ccccc3)c12`, the half-maximal inhibitory concentration (IC50) is 72.4 µM in assay [1]; more than 200 µM in assay [2]; 42.4 µM in assay [3]; 125 µM in assay [4]; more than 200 µM in assay [5].

Regarding `CCCCn1c2ccccc2c2cc(C(=O)OCCCCCCOC(=O)c3cc4c5ccccc5n(CCCC)c4c(C)n3)nc(C)c21`, the half-inhibitory concentration (IC50) in assay [1] is 60.5 µM; in assay [2], more than 200 µM; in assay [3], 54.6 µM; in assay [4], more than 200 µM; in assay [5], more than 200 µM.

As for `CCCCn1c2ccccc2c2cc(C(=O)OCCCCCCCCCCOC(=O)c3cc4c5ccccc5n(CCCC)c4cn3)ncc21`, the IC50 in assay [1] was 89.2 µM; in assay [2], 168 µM; in assay [3], 45.2 µM; in assay [4] it was more than 200 µM; in assay [5], more than 200 µM.

With `O=C(OCCCCCCCCOC(=O)c1cc2c3ccccc3n(Cc3ccccc3)c2cn1)c1cc2c3ccccc3n(Cc3ccccc3)c2cn1`, the concentration for half-maximal inhibition (IC50) in assay [1] was 68.6 µM; in assay [2], more than 200 µM; in assay [3], 162 µM; in assay [4], more than 200 µM; in assay [5], more than 200 µM.

In the case of `Cc1nc(C(=O)OCCCCCCOC(=O)c2cc3c4ccccc4n(CCCc4ccccc4)c3c(C)n2)cc2c3ccccc3n(CCCc3ccccc3)c12`, the concentration for half-maximal inhibition (IC50) was 21.8 µM in assay [1]; more than 200 µM in assay [2]; more than 200 µM in assay [3]; more than 200 µM in assay [4]; 73.4 µM in assay [5].

In the case of `CCn1c2ccccc2c2cc(C(=O)OCCCCCCOC(=O)c3cc4c5ccccc5n(CC)c4c(-c4cc(OC)c(OC)c(OC)c4)n3)nc(-c3cc(OC)c(OC)c(OC)c3)c21`, the IC50 in assay [1] amounted to 10.9 µM; in assay [2], 159 µM; in assay [3] it was 20.7 µM; in assay [4], 40.4 µM; in assay [5], 47.4 µM.
